Results published in a melting point compilation (Tetko et al.; mined from patent text by program, amines drawn as free bases though some values may be those of a salt).

| Structure (SMILES) | melting point [°C] |
| --- | --- |
| N#Cc1c(-c2ccccc2)cc(Cl)nc1Cl | 167 to 169 |
| O=C(NCCOc1ccc(-c2noc(=O)[nH]2)cc1)C1Cc2ccccc2N1S(=O)(=O)c1ccc(-c2cccc(C(F)(F)F)c2)cc1 (stereo not drawn) | 123 to 130 |
| CCNS(=O)(=O)c1cccc(NC(=O)c2cnn3c(C(F)(F)F)cc(-c4ccc(C(F)(F)F)cc4)nc23)c1 | 207 |
| Cc1c(C)c(N2CCN(c3ccnc(Cl)n3)CC2)c(C)c2c1OC(C)(C)C2 | 192 to 193 |
| CNC(=O)c1c(NC(=O)c2cc(C(F)(F)F)nn2-c2ncccc2Cl)ccc2cn[nH]c12 | 190 to 192 |
| O=C(O)c1ccc(CCOCCCCCCBr)s1 | 60 to 61 |
| CC(C)(C)C(=O)c1c[nH]c2ncc(-n3ccnc3)nc12 | 215 to 217 |
| Cc1c(Cl)cc(Cl)cc1Br | 84 to 85 |
| COCC12CCC(O)CC1CCC1C3CCC(=O)C3(C)CCC12 (stereo not drawn) | 172 to 174 |
| O=C1CC(=O)C2C3C=CC(C3)C12 (stereo not drawn) | 183 |
| O=C(NC1CCCN(Cc2ccccc2)C1)c1ccc2[nH]ncc2c1 (stereo not drawn) | 203 to 204 |
| CN(C)C(=O)N1N=C2c3cc(F)ccc3OC[C@@H]2[C@@H]1c1ccccc1 (racemic) | 117 |
| O=C1CC(c2c(Cl)cccc2Cl)CN1 (stereo not drawn) | 153 to 154 |
| O=C1N[C@@H](C(=O)O)CCCCCC[C@@H]1CS (relative stereo) | 180 to 185 |
| CC(C)N(Sc1nc2ccccc2s1)C(C)C | 57 to 59 |
| CSC[C@H](NCc1ccccc1N)C(=O)O | 193 |

| Structure (SMILES) | melting point [°C] |
| --- | --- |
| Cc1nnc(-c2ccc3occ(-c4ccncc4Cl)c3c2)o1 | 147 to 148 |
| CCCCCC[C@H](C)Oc1ccc(-c2ccc(O)cc2)cc1 | 100 |
| O=C(NCC1CCN(CC2(C(=O)O)CCCCC2)CC1)N1C(=O)C2(CCCC2)c2ccccc21 | 160 |
| Cc1nc(CC(=O)O)no1 | 101 to 103 |
| CC(SC1COC(c2cccc(C(=O)Nc3ccc(C#N)cc3)c2)OC1)C(O)(Cn1cncn1)c1ccc(F)cc1F (stereo not drawn) | 105 |
| c1ccc(COc2cccc(CSc3nc4cnccc4[nH]3)c2)cc1 | 161 to 164 |
| O=S1N=C(NCCCN(Cc2ccsc2)c2ccccn2)C(NCc2ccncc2)=N1 (stereo not drawn) | 155 to 157 |
| COCCc1nc2c(N)nc3ccccc3c2n1CCOCCNC(=O)Nc1ccccc1 | 171 to 174 |
| CCOC(=O)C1(C)CCc2ccccc2O1 (stereo not drawn) | 79 to 80 |
| CON=CNC(=O)c1ccc(C2=NOC(c3cc(Cl)cc(Cl)c3)(C(F)(F)F)C2)cc1C(C)(C)N (stereo not drawn) | 144 to 146 |
| Clc1c(CN[C@H]2CC[C@@H](c3ccccc3)CC2)ccn2c(CC3CC3)nnc12 | 171 |
| CC(=O)N(C)C1=C(C#N)CC(N)(C(=O)CCCl)C=C1 (stereo not drawn) | 174 to 175 |
| O=C(NCCCO)c1cc(Br)c(Br)[nH]1 | 160 to 162 |
| Clc1ncnc2c1ncn2CCCN1CCC(COc2ccccc2)CC1 | 95 to 96 |
| OCc1nccc2c1CCCC2 | 81 to 82 |
| N#Cc1cccc(C2=Nc3ccc(-c4cccc(F)c4)cc3NC(=O)C2)c1 | 232 to 235 |

The remaining lines, values ahead:

| melting point [°C] | Structure (SMILES) |
| --- | --- |
| 171 | COC(=O)c1cc(C(=O)c2c(C)c(NC(=O)c3cccc(OCCOS(C)(=O)=O)c3)c3ccccn23)ccc1N |
| 161 to 162 | O=C1c2ccccc2C(=O)N1OCC=Cc1ccc(Br)cc1 |
| 258 to 259 | Cc1cc(-n2cncn2)cc2c1NC(=O)CC2 |
| 320 to 321 | Cn1c(C2=CC(=O)c3ccccc3C2=O)ccc1C1=CC(=O)c2ccccc2C1=O |
| 116 to 117 | CCCOc1ccc(C(=O)CCC(=O)O)cc1 |
| 190 | CN(c1cccc2cc(-c3nccs3)[nH]c12)S(=O)(=O)c1ccsc1CCl |
| 80 to 82 | CC(C)(C)OC(=O)N1CCC(ON=C(c2ccccc2)c2cc3ccncc3[nH]2)C1 (stereo not drawn) |
| 110 to 112 | O=c1cc(CO)oc2cc(OCCCCl)ccc12 |
| 230 to 232 | O=C(O)CC1(CC(=O)O)c2ccccc2C(=O)c2ccccc21 |
| 253 to 255 | Cn1cc(C(=O)O)c(Nc2ccc(F)cc2F)cc1=O |
| 124 to 126 | COc1ccncc1C#N |
| 135 to 137 | O=C(O)c1csc(Oc2cccc(Cl)c2)n1 |
| 173 to 174 | O=c1[nH]c2cccc(OCCN3CCc4ccccc4C3)c2[nH]1 |
| 218 to 220 | O=S(=O)(NCCN1CCOCC1)c1ccc(-c2n[nH]c3c2Cc2ccccc2-3)cc1 |
| 165 to 167 | COC(=O)c1cc(C)cc(OC)c1C1=C(OC)C(=O)c2c(O)cccc2C1=O |
| 142 | CN(C)C(=S)Oc1ccc(C(F)(F)F)cc1C(=O)c1ccc(C#N)cc1 |
| > 300 | Cn1c2ccc([N+](=O)[O-])cc2c2c3c(ccc21)C(=O)OC3=O |
| 204 to 205 | CCCOc1ccccc1-c1nc2cc(NC)ccc2c(=O)[nH]1 |
| 204 to 205 | O=C1Cc2cc(O)ccc2N1c1c(Cl)cccc1Cl |
| 154 to 155 | CC(C)N(CCN1C(=O)/C(=N/NC(N)=O)c2cc(Cl)ccc21)C(C)C |
| 273 to 278 | CC(=O)Nc1ccc2c(c1)NC(=O)CC2(C)C |

| melting point [°C] | Structure (SMILES) |
| --- | --- |
| 215 to 218 | CC(C)(CO)Nc1nc(Nc2cccc(NS(C)(=O)=O)c2)nc2[nH]cnc12 |
| 163 to 165 | CC1(C)CC(O)C(C)(C)c2cc(CC=Cc3ccccc3C#N)ccc21 (stereo not drawn) |
| 270 to 280 | Cc1c(-c2ccccc2)c2c(c3c1[nH]c1ccc(O)cc13)C(=O)NC2=O |
| 40 to 42 | O=[N+]([O-])c1ccc(Br)cc1O |
| 203 to 207 | Cn1ncc(C(=O)N2CCOCC2)c1C(=O)Nc1ccn2nc(-c3ccccc3)nc2c1 |
| 240 to 243 | CC1Cc2c(N3CCN(C)CC3)c(F)c(N)c3c(=O)c(C(=O)O)cn1c23 (stereo not drawn) |
| 202 to 203 | O=S1OCCN1c1cc(-c2ccnc(Nc3cccc(Cl)c3)n2)ccn1 (stereo not drawn) |
| > 250 | CCOC(=O)c1cn2c3c(c(-c4ccc(S(N)(=O)=O)cc4)c(F)cc3c1=O)OCC2C (stereo not drawn) |
| 146 | CCOC(=O)CNc1nc(-c2ccccc2)c2cc(Cl)ccc2n1 |
| 140 | CS(=O)(=O)C(=C1CN(C(c2ccccc2)c2ccccc2)C1)c1cccc(C(N)=O)c1 |
| 199 to 200 | CN1CCC(C2(O)c3ccccc3COc3cc(Cl)ccc32)CC1 (stereo not drawn) |
| 126 | CC(C)Oc1ncnc2c(O)ccc(Cl)c12 |
| 101 to 103 | O=Cc1cc(N2CCN(Cc3ccccc3)CC2)ccc1O |
| 143 to 145 | COc1ccc(-c2nc(Sc3ccc(Cl)cc3)cc(N3CCN(C)CC3)n2)cc1 |
| > 300 | CC1SC(=O)NN=C1c1ccc2c(c1)C(=NNC(=O)c1cccs1)C(=O)N2 (stereo not drawn) |
| 257 to 260 | COc1ccc([N+](=O)[O-])c(C=C2C(=O)NC(=O)N2C)c1 |
| 69 to 72 | Cc1c(Cl)ccc(S(=O)(=O)Cl)c1C#N |
| 245 to 247 | Cc1ccc2[nH]c(-c3ccc(S(C)(=O)=O)cc3)c(-c3ccccc3)c2c1 |
| 239 to 241 | Cc1ccc(C(=O)NCc2ccccc2)cc1-c1nc(S(C)(=O)=O)nc2c1CNC(=O)N2c1c(F)cccc1F |
| 184 to 185 | O=[N+]([O-])C1=CN(Cc2ccccc2)C2C([N+](=O)[O-])=CN(Cc3ccccc3)C1N2Cc1ccccc1 |
